Columns and labels:
[1] = tested on: CYP3A; experiment: Inhibition of CYP3A-mediated midazolam 1′-hydroxylation in human liver microsomes; format: in vitro ADME; settings: for Inhibitory potency ([inhibitor]/K i), CYP3A (1-hydroxylation): relative to the mean of reported therapeutic concentrations
Protocol: (§1) The mass spectrometer was run in the positive ion mode. Nitrogen as the drying gas was supplied at a flow of 10 L/minutes and at a temperature of 350°C.

[2] = molecular target: CYP2C9 (Homo sapiens, UniProt P11712); experiment: Inhibition of CYP2C9-mediated diclofenac 4′-hydroxylation in human liver microsomes; settings: 15 μM diclofenac, antipsychotics 0.05 to 50 μM, abaperidone up to 20 μM
Sequence of CYP2C9 (P11712 whole entry): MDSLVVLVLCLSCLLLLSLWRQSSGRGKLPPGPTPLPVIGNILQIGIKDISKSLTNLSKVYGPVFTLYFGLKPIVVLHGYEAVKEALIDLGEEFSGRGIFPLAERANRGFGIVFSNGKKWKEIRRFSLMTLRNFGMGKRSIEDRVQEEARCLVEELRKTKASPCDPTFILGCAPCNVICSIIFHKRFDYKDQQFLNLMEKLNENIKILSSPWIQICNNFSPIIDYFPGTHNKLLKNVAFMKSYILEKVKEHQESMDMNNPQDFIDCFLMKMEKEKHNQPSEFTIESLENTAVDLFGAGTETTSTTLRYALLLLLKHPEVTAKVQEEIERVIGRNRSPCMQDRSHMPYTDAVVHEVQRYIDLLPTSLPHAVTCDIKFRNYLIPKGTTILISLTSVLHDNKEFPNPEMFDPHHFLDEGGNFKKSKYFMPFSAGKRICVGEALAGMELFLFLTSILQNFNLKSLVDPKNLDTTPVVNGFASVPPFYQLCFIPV
Protocol: Inhibition studies on four different CYP isoform-specific substrates were carried out in human liver microsomes (Gentest Corporation, Woburn, MA). Assessed reactions were phenacetin O-deethylation for CYP1A2, (+/−)-bufuralol 1′-hydroxylation for CYP2D6, diclofenac 4′-hydroxylation for CYP2C9, and midazolam 1′- and 4′-hydroxylation for CYP3A. The different antipsychotics were dissolved in methanol and serially diluted with 100 mM tris buffer (pH = 7.5) to obtain final concentrations ranging from 0.05 to 50 μM. Abaperidone was an exception and was dissolved in hot water up to a maximum concentration of 20 μM.
Reactions were started by adding microsomal protein and the mix was then vortexed and incubated at 37°C for 30 min. The process was stopped by the addition of acetonitrile and incubation on ice during 10 minutes. Samples were then centrifuged at 10,000 g for 3 minutes, and the supernatant was taken for subsequent HPLC analysis. Control inhibition studies were carried out with prototypic inhibitors in increasing concentrations up to 20 μM, namely, furafylline (CYP1A2), quinidine (CYP2D6), sulphaphenazole (CYP2C9), and ketoconazole (CYP3A).
The effect of antipsychotics on the rate of CYP-catalyzed probe substrates was expressed as a percentage of the control activity with no antipsychotic present.

[3] = tested on: CYP3A; experiment: Inhibition of CYP3A-mediated midazolam 4′-hydroxylation in human liver microsomes; format: in vitro ADME; settings: abaperidone up to 20 μM
Protocol: as §1

[4] = molecular target: T1, CYP2D6 (Homo sapiens, UniProt P10635); experiment: biochemical
T1 sequence (P10635 whole entry): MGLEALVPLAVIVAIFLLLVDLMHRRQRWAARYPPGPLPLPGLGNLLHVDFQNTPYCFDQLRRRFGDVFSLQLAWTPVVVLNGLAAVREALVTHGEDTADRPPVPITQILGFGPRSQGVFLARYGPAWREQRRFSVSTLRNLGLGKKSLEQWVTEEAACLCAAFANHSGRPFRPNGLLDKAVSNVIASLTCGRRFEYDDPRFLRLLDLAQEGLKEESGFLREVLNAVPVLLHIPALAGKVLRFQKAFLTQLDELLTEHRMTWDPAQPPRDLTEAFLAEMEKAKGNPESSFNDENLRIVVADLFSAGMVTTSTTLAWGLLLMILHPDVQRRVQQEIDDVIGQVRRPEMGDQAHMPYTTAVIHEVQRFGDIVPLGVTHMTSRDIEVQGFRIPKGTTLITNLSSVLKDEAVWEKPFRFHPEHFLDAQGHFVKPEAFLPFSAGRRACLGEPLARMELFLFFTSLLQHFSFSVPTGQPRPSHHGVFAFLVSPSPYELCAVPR
Source text: The composition of the mobile phase was 40% acetonitrile: 60% acetic acid (0.1%) (vol/vol).

[5] = reported therapeutic concentrations; ref Kirchherr and Kühn-Velten [18]; cited from earlier work
[6] = molecular target: T1, CYP2D6; settings: cited from earlier work

## Cc1nc2n(c(=O)c1CCN1CCC(c3noc4cc(F)ccc34)CC1)CCCC2 [Risperidone]
[1]
  Inhibitory potency ([inhibitor]/K i), CYP3A (1-hydroxylation): 0.0092

## O=c1c(CO)coc2cc(OCCCN3CCC(c4noc5cc(F)ccc45)CC3)ccc12 [abaperidone, 7-[3-[4-(6-fluoro-1,2-benzisoxazol-3-yl)-piperidin-1-yl]propoxy]-3-(hydroxymethyl)chromen-4-one]
[2]
  Inhibition of CYP2C9 (in words): did not cause a significant inhibition
[1]; human liver microsomes, abaperidone up to 20 μM
  Inhibition of CYP3A midazolam 1′-hydroxylation (in words): did not cause a significant inhibition
[3]
  Inhibition of CYP3A midazolam 4′-hydroxylation (in words): did not cause a significant inhibition

## COc1ccc2c(c1)N(C[C@H](C)CN(C)C)c1ccccc1S2 [Levomepromazine]
[4]
  IC50: 25.5 µM
  Ki: 12.8 µM
[1]; human, human liver microsomes, pH 7.5, probe midazolam (1′-hydroxylation), 10 μM, estimate obtained from IC50 as described in [17] (IC50-to-Ki tool), read-out: K i, CYP3A (1-hydroxylation)
  Ki at 30 min: 15 µM
[1]; pH 7.5, probe midazolam (1′-hydroxylation), 10 μM, human liver microsomes, inhibitor 0.05 to 50 μM, read-out: I max (maximum inhibition), CYP3A (1-hydroxylation)
  inhibition at 30 min: 58.2%
[1]; pH 7.5, probe midazolam (1′-hydroxylation), human liver microsomes, 10 μM midazolam, 30 min 37°C
  IC50 at 30 min: 30 µM
[1]
  Inhibitory potency ([inhibitor]/K i), CYP3A (1-hydroxylation): 0.0083
[5]
  Therapeutic range: 0.05 to 0.2 µM

## O=C(CCCN1CCC(O)(c2ccc(Cl)cc2)CC1)c1ccc(F)cc1 [Haloperidol]
[6]
  Inhibition of CYP2D6 (in words, literature): inhibitory effect

## Cc1cc2c(s1)Nc1ccccc1N=C2N1CCN(C)CC1 [Olanzapine]
[5]
  Therapeutic range: 0.06 to 0.25 µM

## CN1CCN(C2=Nc3cc(Cl)ccc3Nc3ccccc32)CC1 [clozapine]
[6]
  Inhibition of CYP2D6 (in words, literature): inhibitory effect

From publication PMC3586484, “Comparative Cytochrome P450 In Vitro Inhibition by Atypical Antipsychotic Drugs” (ISRN Pharmacology, 2013)
